The text below walks through data of patent US8008320B2, “3-(indolyl)-4-arylmaleimide derivatives and their use as angiogenesis inhibitors” (Johannes Gutenberg-Universitatis, priority 2004, dated 2011).

The melting point is the temperature, or range, at which the solid turns liquid.

On to `COc1cc(C2=C(c3c(-c4ccccc4)[nH]c4ccccc34)C(=O)NC2=O)cc(OC)c1OC` [Example 6, 3-(2-Phenylindole-3-yl)-4-(3,4,5-trimethoxyphenyl)-1H-pyrrole-2,5-dione], for which the melting point came out at 304 °C.
The result for `COc1cc(C2=C(c3cc4ccccc4[nH]3)C(=O)NC2=O)cc(OC)c1OC` [Example 7, 3-(Indole-2-yl)-4-(3,4,5-trimethoxyphenyl)-1H-pyrrole-2,5-dione] reads 252 °C; that for `COc1cc(C2=C(c3c(C)[nH]c4ccccc34)C(=O)NC2=O)cc(OC)c1OC` [Example 5, 3-(2-Methylindole-3-yl)-4-(3,4,5-trimethoxyphenyl)-1H-pyrrole-2,5-dione], 266 °C; that for `COc1ccc(C2=C(c3c[nH]c4ccccc34)C(=O)NC2=O)cc1OC` [Example 2, 3-(Indole-3-yl)-4-(3,4-dimethoxyphenyl)-1H-pyrrole-2,5-dione], 210 °C.
As for `COc1ccc2[nH]cc(C3=C(c4cc(OC)c(OC)c(OC)c4)C(=O)NC3=O)c2c1` [Example 3, 3-(5-Methoxyindole-3-yl)-4-(3,4,5-trimethoxyphenyl)-1H-pyrrole-2,5-dione], the melting point amounted to 268 °C.
Take `COc1cc(C2=C(c3cn(C)c4ccccc34)C(=O)NC2=O)cc(OC)c1OC` [Example 4, 3-(1-Methylindole-3-yl)-4-(3,4,5-trimethoxyphenyl)-1H-pyrrole-2,5-dione]: the melting point amounted to 187 °C.
Turning to `COc1cc(C2=C(c3c[nH]c4ncccc34)C(=O)NC2=O)cc(OC)c1OC` [Example 8, 3-(7-Azaindol-3-yl)-4-(3,4,5-trimethoxyphenyl)-1H-pyrrole-2,5-dione], the melting point turned out to be 162 °C.
